Test results from PMC4265395 (Malaria Journal, 2014).
Like-named read-outs stand apart in the source and are kept apart here. Marks after values point to notes of the source that are not given here.

Tests used:
HepG2 cells = type: cell-based; details: human, 24 h
Procedure: A human hepatoma cell line (HepG2), originally received from the University of Lisbon as a kind gift, was cultured as described. […] When confluent, the cell monolayer was trypsinized, washed with culture medium supplemented with 10% FCS, counted, diluted (5 × 10^3 cells/well), placed in flat-bottom 96-well plates (Corning, Santa Clara, CA, USA), and incubated for 18 h at 37°C to allow cell adhesion. […] After 3 h, the supernatant was discarded, 100 μL of dimethyl sulphoxide (DMSO) was added per well, and the optical density was measured (SpectraMax340PC384, Molecular Devices) at 570 nm (test) and 630 nm (background). Cell viability was expressed as the percentage of the absorbance compared to the absorbance of the untreated cells and subtracted from the appropriate background measurement.

[1] = test system: P. berghei NK65 CQ-resistant strain; type: in vivo, P. berghei in Swiss mice; details: for Activity class against CQ-resistant P. berghei in mice: 25 mg/kg
Procedure: (§1) The protocol for animal use was approved by the Ethics Committee for Animal Use (CEUA LW-23/13) of the Oswaldo Cruz Foundation (Fiocruz). Only Swiss adult female mice (20 ± 2 g weight) were used; they were raised at the animal facilities at FIOCRUZ-Minas.
A P. berghei NK65 CQ-resistant strain maintained at -70°C, selected by increasing doses of CQ, maintained in mice under constant drug pressure (CQ 150 mg/kg) and stored at -70°C was also defrosted and used to inoculate mice. […] The mice were inoculated with 10^7 parasitized RBCs using blood parasites from a donor with parasites resistant to 150 mg/kg of CQ. Groups of five mice each were separated 24 h after the parasite inoculation, then treated orally with the test CQAn at doses of 25 or 50 mg/kg for three consecutive days. Two control groups were used in each experiment; one received CQ at 150 mg/kg and the other was infected but treated with vehicle only (no drugs). The inhibition of parasitaemia was evaluated as described for the mice inoculated with the CQ-sensitive parasites.

[2] = test system: CQ-S P. falciparum parasites (3D7 strain); experiment: anti-HRPII test, P. falciparum CQ-S 3D7 strain in culture; type: cell-based, Plasmodium falciparum; details: for SI (MLD50/IC50) 3D7 (CQ-S): MLD50 HepG2 / IC50 3D7; for IC50: Plasmodium falciparum; for Activity class against CQ-S parasites (3D7): in vitro, class by IC50
Procedure: (§2) Before tests with the molecules were performed, ring stage parasites were synchronized using sorbitol and the parasitaemia and haematocrit were adjusted; 180 μL/well was added to 96-well microtiter plates (Corning, Santa Clara, CA, USA) containing the diluted compounds tested in triplicate. Drug activity was evaluated in relation to control cultures with no drugs and was measured using the anti-histidine-rich protein II (HRPII) test as described. CQ was used in each test as a control, and two to four experiments were performed for each parasite strain.
(§3) The cultures were added to plates containing the diluted drugs, followed by incubation for 24 h under standard culture conditions. The contents of six wells with no drugs were harvested in each test plate, pooled in microtubes, and frozen for later use to measure the background parasite growth as described. […] Phosphate-buffered saline (PBS) containing 0.05% Tween and 4% bovine serum albumin was used for plate blocking (3 h at room temperature) to avoid nonspecific antibody binding. After 1 h at room temperature, the plate was washed, and 100 μL/well of a secondary antibody solution (MPFG-55P ICLLAB®, USA) was added, followed by incubation with 3,3′,5,5′-tetramethylbenzidine (TMB) chromogen (KPL, Gaithersburg, MD, USA) in the dark. […] The anti-P. falciparum drug activity was evaluated by comparing the parasite growth in the drug-free control cultures, considered 100% growth, with that in the drug test cultures.

[3] = test system: CQ-R P. falciparum parasites (W2 clone); experiment: anti-HRPII test, P. falciparum CQ-R W2 clone in culture; type: cell-based, Plasmodium falciparum; details: for SI (MLD50/IC50) W2 (CQ-R): MLD50 HepG2 / IC50 W2; for IC50: Plasmodium falciparum
Procedure: as §2, §3

[4] = test system: P. berghei NK65 blood parasites (CQ-sensitive); design: method as in de Souza et al. [19]; details: 25 mg/kg, adapted from earlier paper, ref de Souza et al. [19], cited from earlier work
β-haematin formation = experiment: Inhibition of β-haematin formation assay (lipid catalyst); type: biochemical
Procedure: The assay was performed using a lipid as a catalyst to promote crystallization. Briefly, drug stock solutions were prepared in DMSO and were used at a final concentration of up to 30 mM. A haem stock (10 mM) was made in DMSO and was diluted to 50 μM with 100 mM sodium acetate (pH 4.8). […] The plates were incubated at 37°C for 2 h to allow crystallization, followed by the addition of 100 μl of 200 mM sodium bicarbonate (pH 9.1) to solubilize any remaining monomeric haem. After incubation for 30 min at room temperature, the amount of solubilized monomeric haem was determined by measuring the absorbance at 405 nm. Finally, 20 μl of 1 M sodium hydroxide was added to the plates to dissolve any crystals that had been formed, and the absorbance was read at 405 nm to determine the total amount of haem present in each well. The inhibition of haem crystallization was determined as a function of the amount of monomeric haem that was not crystallized divided by the total amount of haem present in the assay mixture. The results are expressed as IC50 values based on the percentage inhibition of β-haematin formation by the CQAn.

[5] = test system: P. berghei NK65 blood parasites (CQ-sensitive); experiment: Suppressive test in mice, CQ-sensitive P. berghei; type: in vivo, P. berghei in Swiss mice; details: for Inhibition of P. berghei parasitaemia, day 5 / Inhibition of P. berghei parasitaemia, day 7: 50 mg/kg dose; for Inhibition of P. berghei parasitaemia, day 5: day 5 after infection; for Inhibition of P. berghei parasitaemia, day 7: day 7 after infection; for Percentage reduction of parasitaemia, CQ-Sensitive, Day 5 / Percentage reduction of parasitaemia, CQ-Sensitive, Day 7: 25 mg/kg oral, four consecutive days, vs non-treated mice; for Percentage reduction of parasitaemia, CQ-Sensitive, Day 5: day 5 after inoculation; for Percentage reduction of parasitaemia, CQ-Sensitive, Day 7: day 7 after inoculation; for Mice surviving the infection at least 30 days after the end of treatment: P. berghei-infected mice, groups of five
Procedure: as §1
The suppressive test was performed as described using the P. berghei NK65 blood parasites, with some modifications. Briefly, the blood parasites were maintained through weekly blood passages in mice. For the experiments, groups of 20–30 mice were inoculated with 1 × 10^5 infected erythrocytes. Approximately three hours later, they were randomly distributed into groups of five to six mice per cage, which were treated daily by gavage for four consecutive days. All the compounds were freshly diluted in 3% DMSO (Sigma-Aldrich) in RPMI medium and were administered orally at doses of 25 mg/kg or 50 mg/kg. The control mice received the drug vehicle. On days 5 and 7 after parasite inoculation, blood was taken from the tail of each mouse and used to prepare thin smears, which were methanol-fixed, Giemsa-stained and examined microscopically to determine parasitaemia.

[6] = 25 mg/kg (footnote b; head says 50 mg/kg)
[7] = 3D7, anti-HRPII method, average ± SD of two to four experiments, read-out: Anti-P. falciparum activity (IC50) 3D7 (CQ-S)
[8] = W2, anti-HRPII method, average ± SD of two to four experiments, read-out: Anti-P. falciparum activity (IC50) W2 (CQ-R)
[9] = 50 mg/kg oral, three consecutive days
[10] = experiment 1, read-out: Inhibitory concentration of β-haematin formation (IC50), Exp 1
[11] = experiment 2, read-out: Inhibitory concentration of β-haematin formation (IC50), Exp 2
[12] = experiment 3, read-out: Inhibitory concentration of β-haematin formation (IC50), Exp 3

| SMILES | Cytotoxicity MLD50 HepG2 cells (HepG2 cells) [µM] | SI (MLD50/IC50) 3D7 (CQ-S) [2] | IC50 [2, 7] [µM] | Activity class against CQ-S parasites (3D7) [2] | SI (MLD50/IC50) W2 (CQ-R) [3] | IC50 [3, 8] [µM] | Percentage reduction of parasitaemia, CQ-Resistant, Day 5 [1, 9] [%] | Percentage reduction of parasitaemia, CQ-Resistant, Day 7 [1, 9] [%] | IC50 (β-haematin formation; [10]) [µM] | IC50 (β-haematin formation; [11]) [µM] | IC50 (β-haematin formation; [12]) [µM] | Inhibition of P. berghei parasitaemia, day 5 [5] [%] | Inhibition of P. berghei parasitaemia, day 7 [5] [%] | Percentage reduction of parasitaemia, CQ-Sensitive, Day 5 [5] [%] | Percentage reduction of parasitaemia, CQ-Sensitive, Day 7 [5] [%] | other results |
| --- | --- | --- | --- | --- | --- | --- | --- | --- | --- | --- | --- | --- | --- | --- | --- | --- |
| C#CCNCCCNc1ccnc2cc(Cl)ccc12 [CQAn28] | 1508.56 ± 344.50 | 101 | 14.9 ± 3.58 | inactive | 2125 | 0.71 ± 0.03 |  |  |  |  |  |  |  |  |  | Activity class against CQ-resistant P. berghei in mice [1]: inactive; Percentage reduction of parasitaemia, CQ-Resistant, Day 5 [1, 6]: 0^b %; Percentage reduction of parasitaemia, CQ-Sensitive, Day 5 [4]: 94^a %; Percentage reduction of parasitaemia, CQ-Sensitive, Day 7 [4]: 24^a % |
| C#CCNCCCCNc1ccnc2cc(Cl)ccc12 [CQAn33] | 152.89 ± 12.86 | 131 | 1.17 ± 0.1 | partially active (between 1–5 μM as partially active) | 7645 | 0.02 ± 0.001 | 53 | 52 | 4700 | 3000 | 5600 | 100 | 100 |  |  | β-haematin formation IC50 compared with that of CQ (β-haematin formation; relative to CQ): similar; IC50 compared with that of CQ ([3]; relative to CQ, P. falciparum in vitro): more than 10 fold; Percentage reduction of parasitaemia, CQ-Sensitive, Day 5 [4]: 73^a %; Percentage reduction of parasitaemia, CQ-Sensitive, Day 7 [4]: 57^a % |
| C#CCNCCNc1ccnc2cc(Cl)ccc12 [CQAn34] | 943.29 ± 73.15 | 3144 | 0.3 ± 0.01 | active | 4101 | 0.23 ± 0.15 |  |  |  |  |  |  |  | 99 | 81 | Activity class against CQ-resistant P. berghei in mice [1]: inactive; Percentage reduction of parasitaemia, CQ-Resistant, Day 5 [1, 6]: 0^b % |
| C#CCN(CC#C)CCNc1ccnc2cc(Cl)ccc12 [CQAn37] | 1699.24 ± 10.07 | 2981 | 0.57 ± 0.24 | active | 24275 | 0.07 ± 0.03 | 47 | 33 | 2700 | 10200 | 7500 | 100 | 100 | 100 | 93 | Mice surviving the infection at least 30 days after the end of treatment [5]: Two of the five |
| C#CCN(CC#C)CCCNc1ccnc2cc(Cl)ccc12 [CQAn39] | ≥3207.08 | 1342 | 2.39 ± 0.11 | partially active (between 1–5 μM as partially active) | 5011 | 0.64 ± 0.29 | 62 | 30 |  |  |  |  |  | 95 | 92 |  |
| C#CCN(CC#C)CCCCNc1ccnc2cc(Cl)ccc12 [CQAn45] | 1015.84 ± 42.97 | 868 | 1.17 | partially active (between 1–5 μM as partially active) |  | 0.77 ± 0.21 | 63 | 51 |  |  |  |  |  | 88 | 50 |  |
| CCN(CC)CCCC(C)Nc1ccnc2cc(Cl)ccc12 (stereo not shown) [Chloroquine, reference compound] |  |  |  |  |  |  |  |  | 600 | 2000 | 5000 | 100 | 100 | 100 | 97 | IC50 ([2]; 3D7, read-out: Anti-P. falciparum activity (IC50) 3D7 (CQ-S)): 0.081 ± 0.019 µM; IC50 ([3]; W2, read-out: Anti-P. falciparum activity (IC50) W2 (CQ-R)): 0.38 ± 0.03 µM; Mice surviving the infection at least 30 days after the end of treatment [5]: all |
